Columns and labels:
MCF7 [1] = experiment: Cell cycle arrest in human MCF7 cells assessed as accumulation at G1 phase at 300 nM (reference value: 47.47 to 52.3%); type: functional
A2780 [2] = experiment: Cell cycle arrest in human A2780 cells assessed as accumulation at G2/M phase at 300 nM (reference value: 19.42 to 20.43%); type: functional
MCF7 [3] = experiment: Cell cycle arrest in human MCF7 cells assessed as accumulation at S phase at 300 nM (reference value: 25.36 to 26.82%); type: functional
MCF7 [4] = experiment: Induction of apoptosis in human MCF7 cells assessed as late apoptotic cells at 1000 nM by 7-AAD/Annexin staining-based assay (reference value: 1 to 2.1%); type: functional
MFE-296 [5] = experiment: Cell cycle arrest in human MFE296 cells assessed as accumulation at S phase at 100 nM (reference value: 16.96 to 19.19%); type: functional
MFE-280 [6] = experiment: Cell cycle arrest in human MFE280 cells assessed as accumulation at S phase at 100 nM (reference value: 14.14 to 15.66%); type: functional
MFE-280 [7] = experiment: Cell cycle arrest in human MFE280 cells assessed as accumulation at G2/M phase at 300 nM (reference value: 16.43 to 17.9%); type: functional
MFE-280 [8] = experiment: Cell cycle arrest in human MFE280 cells assessed as accumulation at G1 phase at 100 nM (reference value: 64.99 to 67.86%); type: functional
T47D [9] = experiment: Cell cycle arrest in human T47D cells assessed as accumulation at G1 phase at 100 nM (reference value: 45.5 to 57.8%); type: functional
A2780 [10] = experiment: Cell cycle arrest in human A2780 cells assessed as accumulation at G2/M phase at 100 nM (reference value: 19.42 to 20.43%); type: functional
PC-3 [11] = experiment: Cell cycle arrest in human p53-null PC3 cells assessed as accumulation at G1 phase at 1000 nM (reference value: 50.77 to 51.16%); type: functional
T47D [12] = experiment: Cell cycle arrest in human T47D cells assessed as accumulation at G1 phase at 300 nM (reference value: 45.5 to 57.8%); type: functional
MFE-280 [13] = experiment: Induction of apoptosis in human MFE280 cells assessed as early apoptotic cells at 1000 nM by 7-AAD/Annexin staining-based assay (reference value: 5.1 to 6.2%); type: functional
T47D [14] = experiment: Cell cycle arrest in human T47D cells assessed as accumulation at G2/M phase at 300 nM (reference value: 20.58 to 28.8%); type: functional
MCF7 [15] = experiment: Cell cycle arrest in human MCF7 cells assessed as accumulation at S phase at 100 nM (reference value: 25.36 to 26.82%); type: functional
MFE-280 [16] = experiment: Induction of apoptosis in human MFE280 cells assessed as early apoptotic cells at 300 nM by 7-AAD/Annexin staining-based assay (reference value: 5.1 to 6.2%); type: functional
MCF7 [17] = experiment: Cell cycle arrest in human MCF7 cells assessed as accumulation at G1 phase at 100 nM (reference value: 47.47 to 52.3%); type: functional
A2780 [18] = experiment: Cell cycle arrest in human A2780 cells assessed as accumulation at G1 phase at 1000 nM (reference value: 55.26 to 55.66%); type: functional
A2780 [19] = experiment: Antiproliferative activity against human A2780 cells; type: functional, cell-based
T47D [20] = experiment: Cell cycle arrest in human T47D cells assessed as accumulation at S phase at 100 nM (reference value: 19.89 to 24.55%); type: functional
T47D [21] = experiment: Cell cycle arrest in human T47D cells assessed as accumulation at S phase at 300 nM (reference value: 19.89 to 24.55%); type: functional
A2780 [22] = experiment: Cell cycle arrest in human A2780 cells assessed as accumulation at S phase at 100 nM (reference value: 21.16 to 22.81%); type: functional
MCF7 [23] = experiment: Cell cycle arrest in human MCF7 cells assessed as accumulation at S phase at 1000 nM (reference value: 25.36 to 26.82%); type: functional
A2780 [24] = experiment: Cell cycle arrest in human A2780 cells assessed as accumulation at G1 phase at 100 nM (reference value: 55.26 to 55.66%); type: functional
MFE-280 [25] = experiment: Cell cycle arrest in human MFE280 cells assessed as accumulation at G1 phase at 300 nM (reference value: 64.99 to 67.86%); type: functional
MCF7 [26] = experiment: Antiproliferative activity against human MCF7 cells at 10 uM relative to control; type: functional, cell-based
MFE-296 [27] = experiment: Cell cycle arrest in human MFE296 cells assessed as accumulation at S phase at 1000 nM (reference value: 16.96 to 19.19%); type: functional
MFE-280 [28] = experiment: Induction of apoptosis in human MFE280 cells assessed as early apoptotic cells at 100 nM by 7-AAD/Annexin staining-based assay (reference value: 5.1 to 6.2%); type: functional
MFE-296 [29] = experiment: Cell cycle arrest in human MFE296 cells assessed as accumulation at G2/M phase at 100 nM (reference value: 15.71 to 17.04%); type: functional
PC-3 [30] = experiment: Cell cycle arrest in human p53-null PC3 cells assessed as accumulation at G1 phase at 300 nM (reference value: 50.77 to 51.16%); type: functional
MCF7 [31] = experiment: Cell cycle arrest in human MCF7 cells assessed as accumulation at G1 phase at 1000 nM (reference value: 47.47 to 52.3%); type: functional
A2780 [32] = experiment: Cell cycle arrest in human A2780 cells assessed as accumulation at S phase at 1000 nM (reference value: 21.16 to 22.81%); type: functional
MFE-296 [33] = experiment: Induction of apoptosis in human MFE296 cells assessed as nuclear debris at 300 nM by 7-AAD/Annexin staining-based assay (reference value: 0.4 to 0.8%); type: functional
PC-3 [34] = experiment: Cell cycle arrest in human p53-null PC3 cells assessed as accumulation at G2/M phase at 300 nM (reference value: 18.37 to 18.96%); type: functional
A2780 [35] = experiment: Cell cycle arrest in human A2780 cells assessed as accumulation at G2/M phase at 1000 nM (reference value: 19.42 to 20.43%); type: functional
MFE-296 [36] = experiment: Cell cycle arrest in human MFE296 cells assessed as accumulation at G2/M phase at 300 nM (reference value: 15.71 to 17.04%); type: functional
[37] = Inhibition of bovine brain tubulin polymerization; parameters: species or system Bos taurus
MFE-280 [38] = experiment: Induction of apoptosis in human MFE280 cells assessed as late apoptotic cells at 1000 nM by 7-AAD/Annexin staining-based assay (reference value: 6 to 7.4%); type: functional
MFE-280 [39] = experiment: Cell cycle arrest in human MFE280 cells assessed as accumulation at G1 phase at 1000 nM (reference value: 64.99 to 67.86%); type: functional
T47D [40] = experiment: Cell cycle arrest in human T47D cells assessed as accumulation at S phase at 1000 nM (reference value: 19.89 to 24.55%); type: functional

Compound `O=C(Nc1ccc(-c2cccc(Cl)c2)cn1)c1cncnc1` has an Activity (MCF7 [1]) of 16.22%, an Activity (A2780 [2]) of 30.36% and an Activity (MCF7 [3]) of 23.22%. The Activity (MCF7 [4]) was 2.4%, the Activity (MFE-296 [5]) was 21.05% and the Activity (MFE-280 [6]) was 18.71%. It also gave an Activity (MFE-280 [7]) of 37.86%, an Activity (MFE-280 [8]) of 61.48% and an Activity (T47D [9]) of 54.23%. It also gave an Activity (A2780 [10]) of 20.89%, an Activity (PC-3 [11]) of 5.07% and an Activity (T47D [12]) of 42.55%. For the same compound, the Activity (MFE-280 [13]) was 5.9%, the Activity (T47D [14]) was 22.28% and the Activity (MCF7 [15]) was 19.1%. The Activity (MFE-280 [16]) was 5.4%, the Activity (MCF7 [17]) was 43.58% and the Activity (A2780 [18]) was 13.03%. The EC50 (A2780 [19]) was 55 nM, the Activity (T47D [20]) was 22.91% and the Activity (T47D [21]) was 27.41%. The Activity (A2780 [22]) was 18.92%, the Activity (MCF7 [23]) was 16.61% and the Activity (A2780 [24]) was 58.01%. The Activity (MFE-280 [25]) was 39.17%, the EC50 (MCF7 [26]) was 29 nM and the Activity (MFE-296 [27]) was 18.15%. The Activity (MFE-280 [28]) was 4.9%, the Activity (MFE-296 [29]) was 21.13% and the Activity (PC-3 [30]) was 14.74%. The Activity (MCF7 [31]) was 8.04%, the Activity (A2780 [32]) was 7.1% and the Activity (MFE-296 [33]) was 2.6%. It also gave an Activity (PC-3 [34]) of 60.72%, an Activity (A2780 [35]) of 77.58% and an Activity (MFE-296 [36]) of 55.89%. It also gave an IC50 [37] of 1450 nM, an Activity (MFE-280 [38]) of 8.4% and an Activity (MFE-280 [39]) of 34.18%. For the same compound, the Activity (T47D [40]) was 21.38%.
